In PMC3574188 (Bioorganic & medicinal chemistry, 2012):

Columns and labels:
[1] = tested on: BoNT/A LC; conditions: cited from earlier work
[2] = target: T1, BoNT/A LC (1-425aa) (Clostridium botulinum, UniProt P0DPI0); assay type: biochemical
[3] = target: T1, BoNT/A LC (1-425aa); assay: biochemical

T1 sequence (P0DPI0 1-425 limits assumed): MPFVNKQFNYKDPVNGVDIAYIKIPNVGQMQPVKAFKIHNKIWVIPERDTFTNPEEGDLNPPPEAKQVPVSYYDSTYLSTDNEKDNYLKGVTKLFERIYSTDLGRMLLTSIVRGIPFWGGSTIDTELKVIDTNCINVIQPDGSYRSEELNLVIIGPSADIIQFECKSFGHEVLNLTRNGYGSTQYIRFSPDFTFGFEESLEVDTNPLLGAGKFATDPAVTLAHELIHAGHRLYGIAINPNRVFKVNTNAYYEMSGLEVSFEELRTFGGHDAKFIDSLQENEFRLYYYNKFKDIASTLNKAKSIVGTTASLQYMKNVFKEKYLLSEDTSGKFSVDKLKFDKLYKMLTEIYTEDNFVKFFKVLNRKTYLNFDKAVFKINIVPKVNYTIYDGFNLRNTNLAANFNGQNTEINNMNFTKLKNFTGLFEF

Row | Structure (SMILES) | inhibitory potency against BoNT/A LC relative to parent 3a [2] | fold lower IC50 value than parent 3a [2] | Ki [3] [nM] | fold improved potency (lower Ki) than parent lead 3a [3] [fold] | further results
1 | O=C(C[C@@H](CCO)c1ccc(Cl)cc1Cl)NO [XI] | – | – | – | – | fold lower inhibition constant than the parent X [1]: ~2 fold
2 | O=C(CC12CC3CC(CC(Cl)(C3)C1)C2)NO [Compound 3f] | comparable with the lead molecule | – | – | – | –
3 | O=C(CC12CC3CC(CC(Br)(C3)C1)C2)NO [Compound 3g] | comparable with the lead molecule | – | – | – | –
4 | O=C(CC12CC3CC(C1)CC(C(=O)O)(C3)C2)NO [Compound 3h] | no activity | – | – | – | –
5 | O=C(CC12CC3CC(C1)CC(c1ccc(Cl)cc1)(C3)C2)NO [Compound 3o] | – | ~ 30 fold | ~30 | 17 | –
6 | O=C(CC12CC3CC(C1)CC(c1ccc(Br)cc1)(C3)C2)NO [Compound 3p] | – | ~ 30 fold | ~30 | 17 | –
